Assay results as given in the supplement of paper PMC11665569.

Tests used:
Test in all cases: relative viability (fraction of vehicle control); higher = more viable / less inhibited
Settings in all cases: treatment time: 5 days
KYSE410 = system: KYSE410
Protocol: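 CCK-8 viability of KYSE410 cells transfected with control, YAP/TAZ or TEAD1-4 siRNAs and treated with KRAS G12C inhibitors for 5 days. Values are normalised to vehicle control.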

H2030 = system: H2030
Protocol: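 CCK-8 viability of H2030 cells transfected with control, YAP/TAZ or TEAD1-4 siRNAs and treated with KRAS G12C inhibitors for 5 days. Values are normalised to vehicle control.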

SW1573 = system: SW1573
Protocol: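 CCK-8 viability of SW1573 cells transfected with control, YAP/TAZ or TEAD1-4 siRNAs and treated with KRAS G12C inhibitors for 5 days. Values are normalised to vehicle control.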

C=CC(=O)N1CCN(c2ncnc3c(F)c(-c4c(O)cccc4F)c(Cl)cc23)CC1 [ARS1620]
relative viability
Settings | H2030 | KYSE410 | SW1573
log10 concentration (uM): 0, siRNA knockdown: TEAD1-4 siRNA 1 | 0.502 | 0.606 | 0.394
log10 concentration (uM): 0, siRNA knockdown: TEAD1-4 siRNA 2 | 0.522 | 0.433 | 0.45
log10 concentration (uM): 0, siRNA knockdown: YAP/TAZ siRNA 1 | 0.521 | 0.792 | 0.174
log10 concentration (uM): 0, siRNA knockdown: YAP/TAZ siRNA 2 | 0.482 | 0.59 | 0.156
log10 concentration (uM): 0, siRNA knockdown: negative control siRNA | 0.948 | 0.869 | 0.929
log10 concentration (uM): 0.39794, siRNA knockdown: TEAD1-4 siRNA 1 | 0.429 | 0.338 | 0.297
log10 concentration (uM): 0.39794, siRNA knockdown: TEAD1-4 siRNA 2 | 0.365 | 0.315 | 0.376
log10 concentration (uM): 0.39794, siRNA knockdown: YAP/TAZ siRNA 1 | 0.499 | 0.438 | 0.172
log10 concentration (uM): 0.39794, siRNA knockdown: YAP/TAZ siRNA 2 | 0.448 | 0.428 | 0.15
log10 concentration (uM): 0.39794, siRNA knockdown: negative control siRNA | 0.927 | 0.754 | 0.952
log10 concentration (uM): 0.69897, siRNA knockdown: TEAD1-4 siRNA 1 | 0.257 | 0.25 | 0.273
log10 concentration (uM): 0.69897, siRNA knockdown: TEAD1-4 siRNA 2 | 0.256 | 0.194 | 0.381
log10 concentration (uM): 0.69897, siRNA knockdown: YAP/TAZ siRNA 1 | 0.369 | 0.3 | 0.186
log10 concentration (uM): 0.69897, siRNA knockdown: YAP/TAZ siRNA 2 | 0.386 | 0.288 | 0.175
log10 concentration (uM): 0.69897, siRNA knockdown: negative control siRNA | 0.874 | 0.556 | 0.952
log10 concentration (uM): 1, siRNA knockdown: TEAD1-4 siRNA 1 | 0.151 | 0.106 | 0.189
log10 concentration (uM): 1, siRNA knockdown: TEAD1-4 siRNA 2 | 0.168 | 0.0618 | 0.351
log10 concentration (uM): 1, siRNA knockdown: YAP/TAZ siRNA 1 | 0.216 | 0.123 | 0.2
log10 concentration (uM): 1, siRNA knockdown: YAP/TAZ siRNA 2 | 0.261 | 0.104 | 0.182
log10 concentration (uM): 1, siRNA knockdown: negative control siRNA | 0.742 | 0.198 | 0.94
log10 concentration (uM): 1.301029996, siRNA knockdown: TEAD1-4 siRNA 1 | 0.0456 | 0.0328 | 0.0763
log10 concentration (uM): 1.301029996, siRNA knockdown: TEAD1-4 siRNA 2 | 0.0819 | 0.0272 | 0.233
log10 concentration (uM): 1.301029996, siRNA knockdown: YAP/TAZ siRNA 1 | 0.114 | 0.0271 | 0.136
log10 concentration (uM): 1.301029996, siRNA knockdown: YAP/TAZ siRNA 2 | 0.14 | 0.0298 | 0.139
log10 concentration (uM): 1.301029996, siRNA knockdown: negative control siRNA | 0.217 | 0.0407 | 0.464
log10 concentration (uM): -0.30103, siRNA knockdown: TEAD1-4 siRNA 1 | 0.562 | 0.826 | 0.413
log10 concentration (uM): -0.30103, siRNA knockdown: TEAD1-4 siRNA 2 | 0.478 | 0.769 | 0.47
log10 concentration (uM): -0.30103, siRNA knockdown: YAP/TAZ siRNA 1 | 0.627 | 0.897 | 0.236
log10 concentration (uM): -0.30103, siRNA knockdown: YAP/TAZ siRNA 2 | 0.641 | 0.7891 | 0.209
log10 concentration (uM): -0.30103, siRNA knockdown: negative control siRNA | 0.985 | 0.938 | 0.908
log10 concentration (uM): -0.60206, siRNA knockdown: TEAD1-4 siRNA 1 | 0.646 | 0.943 | 0.655
log10 concentration (uM): -0.60206, siRNA knockdown: TEAD1-4 siRNA 2 | 0.616 | 0.725 | 0.614
log10 concentration (uM): -0.60206, siRNA knockdown: YAP/TAZ siRNA 1 | 0.695 | 0.964 | 0.29
log10 concentration (uM): -0.60206, siRNA knockdown: YAP/TAZ siRNA 2 | 0.731 | 0.86 | 0.306
log10 concentration (uM): -0.60206, siRNA knockdown: negative control siRNA | 0.992 | 0.916 | 0.964
log10 concentration (uM): -1, siRNA knockdown: TEAD1-4 siRNA 1 | 0.742 | 0.909 | 0.683
log10 concentration (uM): -1, siRNA knockdown: TEAD1-4 siRNA 2 | 0.639 | 0.779 | 0.614
log10 concentration (uM): -1, siRNA knockdown: YAP/TAZ siRNA 1 | 0.753 | 0.959 | 0.41
log10 concentration (uM): -1, siRNA knockdown: YAP/TAZ siRNA 2 | 0.78 | 0.883 | 0.417
log10 concentration (uM): -1, siRNA knockdown: negative control siRNA | 0.997 | 0.976 | 0.976
log10 concentration (uM): -2, siRNA knockdown: TEAD1-4 siRNA 1 | 0.922 | 0.981 | 0.9354
log10 concentration (uM): -2, siRNA knockdown: TEAD1-4 siRNA 2 | 1.12 | 0.876 | 1.01
log10 concentration (uM): -2, siRNA knockdown: YAP/TAZ siRNA 1 | 0.976 | 0.988 | 0.817
log10 concentration (uM): -2, siRNA knockdown: YAP/TAZ siRNA 2 | 0.922 | 0.996 | 0.82
log10 concentration (uM): -2, siRNA knockdown: negative control siRNA | 1.02 | 0.9803 | 1.02

C=C(F)C(=O)N1CCN(c2nc(OC[C@@H]3CCCN3C)nc3c2CCN(c2cccc4cccc(Cl)c24)C3)C[C@@H]1CC#N [MRTX849]
relative viability
Settings | H2030 | KYSE410 | SW1573
log10 concentration (uM): 0, siRNA knockdown: TEAD1-4 siRNA 1 | 0.333 | 0.319 | 0.154
log10 concentration (uM): 0, siRNA knockdown: TEAD1-4 siRNA 2 | 0.289 | 0.212 | 0.307
log10 concentration (uM): 0, siRNA knockdown: YAP/TAZ siRNA 1 | 0.531 | 0.273 | 0.0935
log10 concentration (uM): 0, siRNA knockdown: YAP/TAZ siRNA 2 | 0.441 | 0.298 | 0.0411
log10 concentration (uM): 0, siRNA knockdown: negative control siRNA | 0.768 | 0.646 | 0.426
log10 concentration (uM): 0.69897, siRNA knockdown: TEAD1-4 siRNA 1 | 0.0176 | 0.0217 | 0.0234
log10 concentration (uM): 0.69897, siRNA knockdown: TEAD1-4 siRNA 2 | 0.0364 | 0.0146 | 0.127
log10 concentration (uM): 0.69897, siRNA knockdown: YAP/TAZ siRNA 1 | 0.0187 | 0.00876 | 0.00636
log10 concentration (uM): 0.69897, siRNA knockdown: YAP/TAZ siRNA 2 | 0.0145 | 0.00963 | 0.00791
log10 concentration (uM): 0.69897, siRNA knockdown: negative control siRNA | 0.162 | 0.0324 | 0.00854
log10 concentration (uM): -0.30103, siRNA knockdown: TEAD1-4 siRNA 1 | 0.413 | 0.419 | 0.173
log10 concentration (uM): -0.30103, siRNA knockdown: TEAD1-4 siRNA 2 | 0.358 | 0.317 | 0.246
log10 concentration (uM): -0.30103, siRNA knockdown: YAP/TAZ siRNA 1 | 0.458 | 0.381 | 0.141
log10 concentration (uM): -0.30103, siRNA knockdown: YAP/TAZ siRNA 2 | 0.496 | 0.395 | 0.0897
log10 concentration (uM): -0.30103, siRNA knockdown: negative control siRNA | 0.814 | 0.715 | 0.66
log10 concentration (uM): -1, siRNA knockdown: TEAD1-4 siRNA 1 | 0.468 | 0.582 | 0.244
log10 concentration (uM): -1, siRNA knockdown: TEAD1-4 siRNA 2 | 0.437 | 0.45 | 0.263
log10 concentration (uM): -1, siRNA knockdown: YAP/TAZ siRNA 1 | 0.409 | 0.481 | 0.154
log10 concentration (uM): -1, siRNA knockdown: YAP/TAZ siRNA 2 | 0.238 | 0.445 | 0.0905
log10 concentration (uM): -1, siRNA knockdown: negative control siRNA | 0.814 | 0.788 | 0.726
log10 concentration (uM): -1.30103, siRNA knockdown: TEAD1-4 siRNA 1 | 0.473 | 0.704 | 0.262
log10 concentration (uM): -1.30103, siRNA knockdown: TEAD1-4 siRNA 2 | 0.428 | 0.572 | 0.289
log10 concentration (uM): -1.30103, siRNA knockdown: YAP/TAZ siRNA 1 | 0.625 | 0.559 | 0.161
log10 concentration (uM): -1.30103, siRNA knockdown: YAP/TAZ siRNA 2 | 0.322 | 0.525 | 0.108
log10 concentration (uM): -1.30103, siRNA knockdown: negative control siRNA | 0.795 | 0.814 | 0.751
log10 concentration (uM): -2, siRNA knockdown: TEAD1-4 siRNA 1 | 0.676 | 0.871 | 0.463
log10 concentration (uM): -2, siRNA knockdown: TEAD1-4 siRNA 2 | 0.707 | 0.648 | 0.452
log10 concentration (uM): -2, siRNA knockdown: YAP/TAZ siRNA 1 | 0.901 | 0.767 | 0.23
log10 concentration (uM): -2, siRNA knockdown: YAP/TAZ siRNA 2 | 0.521 | 0.735 | 0.181
log10 concentration (uM): -2, siRNA knockdown: negative control siRNA | 0.836 | 0.942 | 0.847
log10 concentration (uM): -2.30103, siRNA knockdown: TEAD1-4 siRNA 1 | 0.774 | 0.873 | 0.552
log10 concentration (uM): -2.30103, siRNA knockdown: TEAD1-4 siRNA 2 | 0.625 | 0.793 | 0.5
log10 concentration (uM): -2.30103, siRNA knockdown: YAP/TAZ siRNA 1 | 0.958 | 0.855 | 0.345
log10 concentration (uM): -2.30103, siRNA knockdown: YAP/TAZ siRNA 2 | 0.707 | 0.868 | 0.308
log10 concentration (uM): -2.30103, siRNA knockdown: negative control siRNA | 0.836 | 0.937 | 0.915
log10 concentration (uM): -3, siRNA knockdown: TEAD1-4 siRNA 1 | 1.02 | 0.888 | 0.913
log10 concentration (uM): -3, siRNA knockdown: TEAD1-4 siRNA 2 | 0.844 | 0.869 | 0.702
log10 concentration (uM): -3, siRNA knockdown: YAP/TAZ siRNA 1 | 1.07 | 0.936 | 0.582
log10 concentration (uM): -3, siRNA knockdown: YAP/TAZ siRNA 2 | 0.756 | 0.915 | 0.531
log10 concentration (uM): -3, siRNA knockdown: negative control siRNA | 0.909 | 0.981 | 0.978
log10 concentration (uM): -4, siRNA knockdown: TEAD1-4 siRNA 1 | 1.14 | 1.04 | 0.988
log10 concentration (uM): -4, siRNA knockdown: TEAD1-4 siRNA 2 | 0.984 | 0.951 | 0.877
log10 concentration (uM): -4, siRNA knockdown: YAP/TAZ siRNA 1 | 1.17 | 0.946 | 0.915
log10 concentration (uM): -4, siRNA knockdown: YAP/TAZ siRNA 2 | 0.911 | 1.01 | 0.845
log10 concentration (uM): -4, siRNA knockdown: negative control siRNA | 0.97 | 0.987 | 0.997
